{"source": "paper PMC8203827", "about": "“The Stand-Alone PilZ-Domain Protein MotL Specifically Regulates the Activity of the Secondary Lateral Flagellar System in Shewanella putrefaciens” (Frontiers in Microbiology, 2021)", "target": "T1, MotL (sfGFP-MotL) (Shewanella putrefaciens, UniProt A0ABX8XB40)", "T1 construct": "gene K3G22_17145", "T1 sequence (A0ABX8XB40 1-144)": "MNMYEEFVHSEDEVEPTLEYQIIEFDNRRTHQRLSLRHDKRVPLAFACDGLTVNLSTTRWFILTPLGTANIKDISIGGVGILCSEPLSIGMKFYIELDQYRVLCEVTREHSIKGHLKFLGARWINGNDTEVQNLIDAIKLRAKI", "assay": "radioligand spot binding on nitrocellulose, phosphorimaging", "conditions": "labelled compound ([…]); […] protein, […] Tris-HCl, […] NaCl, […] MgCl2, […] min, RT; protein purified from strain co-producing phosphodiesterase PdeH", "data": [{"smiles": "Nc1nc2c(ncn2[C@@H]2O[C@@H]3COP(=O)(O)O[C@H]4[C@@H](O)[C@H](n5cnc6c(=O)[nH]c(N)nc65)O[C@@H]4COP(=O)(O)O[C@H]3[C@H]2O)c(=O)[nH]1", "note": "[c-di-GMP]", "values": [{"measurement": "radioligand spot binding on nitrocellulose, phosphorimaging", "value": "Produced under these conditions, robust c-di-GMP binding to MotL could be observed"}]}]}
